Literature values as cited in patent US4127526A, “Novel tetradecapeptides, intermediates therefor, and compositions and methods employing said tetradecapeptides” (priority 1977, dated 1978).

Key:
[1] = system: brain opiate receptor sites
[2] = system: opiate activity
[3] = injected directly into the brain of the rat

H-Tyr-Gly-Gly-Phe-Met-OH [methionine enkephalin]
binding to partially purified brain opiate receptor sites [1]: binds stereo-specifically | activity in bioassays for opiate activity [2]: very active | analgesic activity [3]: weak analgesic agent of short duration
